The test system of data set [1] is human SHP-77 SCLC cells as xenograft. Nature of the data set: Inhibition of tumor growth, SHP-77 xenograft in NCr-nu mice. The class given is in vivo. Particulars: for maximum number of tumours versus control, saline-treated mice / mean tumour size versus saline-treated mice: SHP-77 xenografts; for maximum number of tumours versus control, saline-treated mice: FIG. 6, not subject to analysis of significance; for mean tumour size versus saline-treated mice: i.p. treatment up to 38 days, p<0.05; for mean tumor volume: SHP-77 small cell lung cancer xenografts, saline control 260±33 mm^3. On the procedure: SHP-77 SCLC cells were grown in culture and injected into each flank of NCr-nu mice (T cell-deficient immunocompromised mice, suitable for growth of this cell line) (2×10^6 cells per injection, in Matrigel™). One day after injection of tumour cells, groups of 5 mice each were injected with 3 mg/kg of COTI-2MO5 or COTI-4MO5 (i.p.), once every 2 days, up to 38 days. Tumour size was estimated at 5, 10, 17, 24, and 38 days, by external caliper measurement. Animals were humanely euthanized after the 38 day tumour measurement.
For comparison, mice (5 mice per group, injected as described above with SHP-77 human tumor cells as described above) and harbouring SHP-77 xenografts were treated with Taxol® (12.5 mg/kg, i.p. in 0.5 ml isotonic saline) every 2 days (according to the report of J. Riondel et al., Anticancer Res. 8:387-90, 1988) or with cisplatin (3.0 mg/kg of DDP i.p., once per week for four weeks, in isotonic saline, according to the report of P. A. Andrews et al., Cancer Commun. 2:93-100, 1990). Tumour size was estimated at 5, 10, 17, 24, and 38 days, by external caliper measurement. Animals were humanely euthanized after the 38 day tumour measurement.

Data set [2] has as its system A460 large cell carcinoma-derived cells (NSCLC; also printed H460). As to the kind of experiment: In vitro tumor cell growth inhibition, cell count after 3 days. Format: cell-based. Particulars: Homo sapiens. The procedure:
(§1) In vitro inhibition of non-small cell lung cancer (NSCLC) cell lines by the compound of Formula 1B (COTI-4) was evaluated. […] Cells were counted after 3 days in culture and at a cell density of no more than 80%.
(§2) In vitro inhibition of non-small cell lung cancer (NSCLC) cell lines by the compound of Formula 1A is evaluated. […] Cells are counted after 3 days in culture and at a cell density of no more than 80%.
(§3) Briefly, cells were plated in plastic tissue culture plates and grown under standard conditions for each cell line, in carbon dioxide/oxygen atmosphere in plastic tissue culture plates, in the presence of COTI-4 or COTI-4A compounds at 35° C. for 3 days. Control cultures were treated with vehicle minus compound. Cells were counted after 3 days in culture and at a cell density of no more than 80%. The following cell lines, obtained from the National Cancer Institute, were tested: human SCLC cell lines DMS 153, DMS114, SHP77; human NSCLC cell lines H226, A460, A549; human breast cancer cell lines T47D, MCF7; human colon cancer cell line HT29; and, human Leukemia cell lines K562, HL60.

In data set [3] the test system is H226 squamous cell carcinoma-derived cells (NSCLC). The description is as above. Conditions: Homo sapiens. Format: cell-based. On the procedure:
as §1, §2, §3

The test system of data set [4] is A549 adenocarcinoma-derived cells (NSCLC). The description is as above. Format: cell-based. Particulars: Homo sapiens. The procedure:
as §1, §2, §3

For data set [5], the system named is human small cell lung cancer cell lines (DMS-114, DMS-153, SHP-77). Nature of the data set: In vitro inhibition of SCLC cell lines, summary statements. Format: cell-based. An excerpt:
(§4) Cells were counted after 3 days in culture and at a cell density of no more than 80%.
(§5) In vitro inhibition of small cell lung cancer (SCLC) cell lines by the compound of formula 1A was done with standard human tumor cells (established cell lines available from the American Type Tissue culture collection). […] Cells were counted after 3 days in culture and at a cell density of no more than 80%.

Data set [6] has as its system DMS-153 human SCLC cell line. Nature of the data set: In vitro tumor cell growth inhibition, cell count after 3 days. Conditions: for IC50: DMS-153 SCLC cells, 3 days, 35° C. Format: cell-based. On the procedure: as §4, §5, §3
Data set [7] relates to DMS-114 human SCLC cell line. Described as above. Format: cell-based. The procedure:
as §4, §5, §3

For data set [8], the system named is SHP-77 human SCLC cell line. Described as above. Format: cell-based. Particulars: for IC50: Homo sapiens. The procedure:
as §4, §5, §3

Data set [9] has as its system human non-small cell lung cancer cell lines (A549, H226, A460). As to the kind of experiment: In vitro inhibition of NSCLC cell lines, summary statements. Format: cell-based. Conditions: across NSCLC cell lines, read-out: IC50 values, inhibits growth and/or kills NSCLC cells. On the procedure:
(§6) In vitro inhibition of non-small cell lung cancer (NSCLC) cell lines by the compound of Formula 1B (COTI-4) was evaluated. Standard numbers of human tumor cells (established cell lines available from the American Type Tissue culture collection) were plated in plastic tissue culture plates and grown under standard conditions for each cell line, in carbon dioxide/oxygen atmosphere in plastic tissue culture plates, in the presence of COTI-4 (0-1 mM) or Gleevec® ([…]) at 35° C. for 3 days. Control cultures were treated with vehicle minus compound or Gleevec®. Cells were counted after 3 days in culture and at a cell density of no more than 80%.
as §6, with “Formula 1A is” for “Formula 1B (COTI-4) was”, “of compounds of formula 1A” for “of COTI-4”, “cultures are” for “cultures were”, “Cells are” for “Cells were”

The nature of data set [10]: Escalating dose acute toxicity study in mice. The class given is in vivo. Particulars: mice, 4, 8, 16 mg/kg, alternate day IP injections for 28 days. On the procedure: An escalating dose acute toxicity study was conducted with COTI-2, COTI-4 (Formula 1B) and COTI-219. Standard lab mice were divided into four treatment groups (control, 4, 8, 16 mg/kg) with four animals per group. It should be noted that the highest dose was approximately 10 times the estimated effective dose. Mice were given alternate day IP injections for 28 days.

In data set [11] the test system is K562 human Leukemia cell line. Nature of the data set: In vitro IC50 against cancer cell lines. Format: cell-based. Particulars: 72 h, K562 leukemia cells, 3 days, 35° C. The procedure: (§7) Briefly, cells were plated in plastic tissue culture plates and grown under standard conditions for each cell line, in carbon dioxide/oxygen atmosphere in plastic tissue culture plates, in the presence of COTI-4 or COTI-4A compounds at 35° C. for 3 days. Control cultures were treated with vehicle minus compound. Cells were counted after 3 days in culture and at a cell density of no more than 80%.

Data set [12] deals with HT29 human colon cancer cell line. Nature of the data set: In vitro IC50 against cancer cell lines. Conditions: HT-29, 72 h, HT29 colorectal cancer cells, 3 days, 35° C. The class given is cell-based. On the procedure:
as §7

The test system of data set [13] is T47D human breast cancer cell line. Nature of the data set: In vitro IC50 against cancer cell lines. The class given is cell-based. Particulars: 72 h, T47D breast cancer cells, 3 days, 35° C. The procedure:
as §7

Data set [14] relates to MCF7 human breast cancer cell line. Nature of the data set: In vitro IC50 against cancer cell lines. Format: cell-based. Particulars: 72 h, MCF7 breast cancer cells, 3 days, 35° C. The procedure:
as §7

Data set [15] deals with HL60 human Leukemia cell line. As to the kind of experiment: In vitro IC50 against cancer cell lines. The class given is cell-based. Particulars: HL-60, 72 h, HL60 leukemia cells, 3 days, 35° C. On the procedure: as §7
Where [16] appears, read: NCI-H460, 72 h, A460 NSCLC cells, 3 days, 35° C., read-out: IC50.
The mark [17] stands for this setting: NCI-H460, actual in-vitro data, logarithm of IC50, negative, read-out: H460 (Log IC50) (converted).
The mark [18] stands for this setting: NCI-H226, 72 h, H226 NSCLC cells, 3 days, 35° C., read-out: IC50.
Setting [19] is: NCI-H226, actual in-vitro data, logarithm of IC50, negative, read-out: H226 (Log IC50) (converted).
The mark [20] stands for this setting: 72 h, A549 NSCLC cells, 3 days, 35° C., read-out: IC50.
Where [21] appears, read: A549, actual in-vitro data, logarithm of IC50, negative, read-out: A549 (Log IC50) (converted).
The mark [22] stands for this setting: Homo sapiens, DMS-114, actual in-vitro data, logarithm of IC50, negative, read-out: DMS114 (Log IC50) (converted).
[23] abbreviates: SHP77, 72 h, SHP-77 SCLC cells, 3 days, 35° C., read-out: IC50.
The mark [24] stands for this setting: SHP77, actual in-vitro data, logarithm of IC50, negative, read-out: SHP-77 (Log IC50) (converted).

Read-outs that look alike come from different tables or passages of the source.

In the case of `S=C(N/N=C1/CCCc2cccnc21)N1CCN(c2ccccn2)CC1` [COTI-2], in data set [1], the “maximum number of tumours versus control, saline-treated mice” value (“maximum number of tumours versus control” below) is reported as “lower than that in control” and the “mean tumour size versus saline-treated mice” value is given as “significantly lower”.
With `CN1CCN(C(=S)NN=C2c3ncccc3-c3cccnc32)CC1` [COTI-219], the “maximum number of tumours versus control” value in data set [1] is “lower than that in control”.
For the molecule `CN1CCN(C(=S)NN=C(c2ccccc2)c2ccnnc2)CC1` [Formula 1A, 4-methyl-N′-[phenyl(pyridazin-4-yl)methylidene]piperazine-1-carbothiohydrazide], the melting point (usually the temperature of the solid-liquid transition) lay within 141 to 143 °C. Besides, the IC50 in data set [2] (setting [16]) was 100000 nM. Also, in data set [2] (setting [17]), the IC50 was 72400 nM. In addition, the IC50 in [3] (setting [18]) worked out at 90000 nM. Besides, the IC50 in data set [3] (setting [19]) was 63500 nM. The IC50 in data set [4] (setting [20]) came to 1500 nM. The IC50 in data set [4] (setting [21]) is 1570 nM. In [5] (Homo sapiens, across SCLC cell lines, depending on cell line tested, read-out: IC50 values, inhibits growth and/or kills SCLC cells), the IC50 is not below 650 nM. Moreover, the “times more effective in vitro than Gleevec®” value in data set [6] (DMS-153) was “about 100”. The “times more effective in vitro than Gleevec®” value in [7] (DMS-114) was “about 100”. Moreover, the IC50 in [7] (DMS-114 SCLC cells, 3 days, 35° C., listed as COTI-4A, read-out: IC50) was 650 nM. Also, in data set [7] (Homo sapiens, DMS-114, 72 h, DMS-114 SCLC cells, 3 days, 35° C., read-out: IC50), the IC50 was less than 1000 nM. In data set [7] (setting [22]), the IC50 was 650 nM. For the same molecule, in data set [8] (setting [23]), the IC50 was 10000 nM. Also, in data set [8] (setting [24]), the IC50 was 10700 nM. The “effectiveness relative to Gleevec®” value in [8] (SHP-77) is listed as “about twice as effective”. In addition, the IC50 in [9] is not below 1500 nM.
Regarding `CN1CCN(C(=S)NN=C(c2ccccn2)c2ccccn2)CC1` [Formula 1B, N′-(dipyridin-2-ylmethylidene)-4-methylpiperazine-1-carbothiohydrazide], in data set [1], the mean tumor volume came to 6.2 mm^3. Besides, the “maximum number of tumours versus control” value in data set [1] is reported as “lower than that in control”. Besides, the “mean tumour size versus saline-treated mice” value in data set [1] is “significantly lower”. Moreover, the IC50 was 5100 nM in data set [2] (setting [16]); 5110 nM in data set [2] (setting [17]); 2500 nM in data set [3] (setting [18]); 2500 nM in data set [3] (setting [19]); 6800 nM in [4] (setting [20]); 6810 nM in data set [4] (setting [21]). The IC50 stood at 95 nM in data set [11]; 83 nM in data set [12]; 224 nM in data set [13]; 291 nM in [14]; 318 nM in data set [15]; 130 nM in data set [6] (listed as COTI-4 (1B)). Besides, the IC50 in data set [6] (listed as COTI-4M05) is 130 nM; in data set [7] (DMS-114 SCLC cells, 3 days, 35° C., listed as COTI-4 (1B), read-out: IC50) it was 30 nM; in [7] (DMS-114 SCLC cells, 3 days, 35° C., listed as COTI-4M05, read-out: IC50), 30 nM; in [7] (setting [22]), 30 nM; in data set [8] (setting [23]), 173 nM; in data set [8] (setting [24]), 173 nM. Also, the IC50 in data set [9] is not below 2500 nM. In data set [5] (3 human small cell lung cancer cell lines), the “times more effective than Gleevec® against these cell lines in vitro” value was “over 100”. For the same molecule, the “acute toxicity / adverse events” value in data set [10] is “safe and non-toxic at all dosage levels”.
On to `CC(=O)O[C@H]1C(=O)[C@@]2(C)[C@H]([C@H](OC(=O)c3ccccc3)[C@]3(O)C[C@H](OC(=O)[C@H](O)[C@@H](NC(=O)c4ccccc4)c4ccccc4)C(C)=C1C3(C)C)[C@]1(OC(C)=O)CO[C@@H]1C[C@@H]2O` [Taxol®, paclitaxel], for which, in [1], the mean tumor volume turned out to be 183 mm^3; the “maximum number of tumours versus control” value was “lower than that in control”; the “mean tumour size versus saline-treated mice” value is “significantly lower”.
In the same order, the values of `N.N.[Cl][Pt][Cl]` [cisplatin] are 132±26 mm^3, “lower than that in control” and “significantly lower”.

The values above are taken from patent US8466151B2, “Compounds and method for treatment of cancer” (Critical Outcome Technologies, Inc., priority 2007, dated 2013).
